Calls of active or inactive are those of the source. No cut-off for these calls is given here.
Legend:
Relaxin receptor 1 = target: T1, Relaxin receptor 1 (Homo sapiens, UniProt Q9HBX9); assay: Agonist activity at RXFP1 receptor (unknown origin) expressed in HEK293 cells assessed as stimulation of cAMP production incubated for 30 mins by TR-FRET based HTRF assay; format: functional, cell-based
T1 sequence (Q9HBX9 whole entry): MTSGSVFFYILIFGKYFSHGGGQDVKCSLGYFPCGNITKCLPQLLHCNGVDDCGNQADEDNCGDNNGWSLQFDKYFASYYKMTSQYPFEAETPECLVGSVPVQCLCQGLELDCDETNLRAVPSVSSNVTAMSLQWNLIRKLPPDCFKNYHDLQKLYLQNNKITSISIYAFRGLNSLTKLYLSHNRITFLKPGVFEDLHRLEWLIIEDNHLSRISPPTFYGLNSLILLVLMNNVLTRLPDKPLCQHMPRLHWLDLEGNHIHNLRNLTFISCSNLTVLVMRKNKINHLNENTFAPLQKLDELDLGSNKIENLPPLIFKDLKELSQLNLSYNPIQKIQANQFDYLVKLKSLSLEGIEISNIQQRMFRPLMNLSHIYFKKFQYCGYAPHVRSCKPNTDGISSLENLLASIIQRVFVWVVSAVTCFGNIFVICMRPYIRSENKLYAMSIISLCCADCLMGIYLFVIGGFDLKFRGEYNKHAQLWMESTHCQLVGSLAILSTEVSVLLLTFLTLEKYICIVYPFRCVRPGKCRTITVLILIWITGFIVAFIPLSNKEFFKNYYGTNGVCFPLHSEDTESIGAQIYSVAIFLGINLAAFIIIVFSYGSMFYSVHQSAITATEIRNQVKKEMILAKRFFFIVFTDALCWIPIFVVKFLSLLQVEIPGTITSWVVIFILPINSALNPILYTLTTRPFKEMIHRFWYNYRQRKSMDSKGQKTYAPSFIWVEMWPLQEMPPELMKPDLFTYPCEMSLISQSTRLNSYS

[1] = target: T2, Relaxin receptor 1 (Homo sapiens) (UniProt Q9HBX9); assay: Agonist activity at RXFP1 receptor (unknown origin) expressed in HEK293 cells assessed as stimulation of cAMP production incubated for 30 mins by TR-FRET based HTRF assay relative to forskolin; format: functional, cell-based
T2 sequence (whole entry): T1 sequence (Q9HBX9 whole entry)

Row | Compound | AC50 (Relaxin receptor 1; hek293) | %max [1] | AC50 (Relaxin receptor 1; read-out: AC50)
1 | O=C(Nc1cccc(-c2ccc(C(F)(F)F)cc2)c1)c1ccccc1NC(=O)C1CCCCC1 | Not Active | inactive | –
2 | COc1ccccc1C(=O)Nc1cccc(C(=O)Nc2cccc(C(F)(F)F)c2)c1 | – | inactive | –
3 | CSc1cccc(NC(=O)c2ccccc2NC(=O)C2CCCCC2)c1 | – | 84% | 5.29 µM
4 | COc1cccc(OC)c1C(=O)Nc1ccccc1C(=O)Nc1cccc(C(F)(F)F)c1 | – | 42% | 7.47 µM
5 | CC(C)Oc1ccccc1C(=O)Nc1ccccc1C(=O)Nc1cccc(C(F)(F)F)c1 | – | 99% | 0.471 µM
6 | O=C(Nc1cccc(-c2cccs2)c1)c1ccccc1NC(=O)C1CCCCC1 | – | 31% | 471 µM
7 | O=C(Nc1cccc(C(F)(F)F)c1)c1ccccc1-c1ccccc1 | Not Active | inactive | –
8 | O=C(Nc1cccc(C(F)(F)F)c1)c1ccccc1NC(=O)c1cccc2ccccc12 | – | 81% | 5.93 µM
9 | O=C(Nc1ccc([N+](=O)[O-])cc1)c1ccccc1NC(=O)C1CCCCC1 | – | 56% | 74.7 µM
10 | O=C(Nc1cccc(C(F)(F)F)c1)c1ccccc1NC(=O)c1ccccc1C(F)(F)F | – | 70% | 7.47 µM
11 | CN(C)CCOc1ccccc1C(=O)Nc1cccc(C(F)(F)F)c1 | Not Active | inactive | –
12 | O=C(Nc1ccccc1F)c1ccccc1NC(=O)C1CCCCC1 | Not Active | inactive | –
13 | O=C(Nc1ccc(Br)cc1)c1ccccc1NC(=O)C1CCCCC1 | – | 50% | 118 µM
14 | O=C(Nc1ccccc1)c1ccccc1NC(=O)C1CCCCC1 | – | 57% | 94 µM
15 | O=C(Nc1ccc(F)cc1)c1ccccc1NC(=O)C1CCCCC1 | – | 74% | 37.4 µM
16 | O=C(Nc1ccccc1[N+](=O)[O-])c1ccccc1NC(=O)C1CCCCC1 | Not Active | inactive | –
17 | CC(=O)Nc1ccccc1C(=O)Nc1cccc(C(F)(F)F)c1 | – | 51% | 74.7 µM
18 | O=C(Nc1cccc(C(F)(F)F)c1)c1ccccc1NC(=O)C1CCC1 | – | 75% | 2.97 µM
19 | CS(=O)(=O)c1cccc(C(=O)Nc2ccccc2C(=O)Nc2cccc(C(F)(F)F)c2)c1 | – | 77% | 9.4 µM
20 | CCC(CC)C(=O)Nc1ccccc1C(=O)Nc1cccc(C(F)(F)F)c1 | – | 59% | 5.29 µM
21 | N#Cc1cccc(C(=O)Nc2ccccc2C(=O)Nc2cccc(C(F)(F)F)c2)c1 | – | 96% | 2.1 µM
22 | O=C(Nc1cccc(N2CCCCC2)c1)c1ccccc1NC(=O)C1CCCCC1 | Not Active | inactive | –
23 | O=C(Nc1ccccc1C(=O)Nc1cccc(C(F)(F)F)c1)c1cc(C(F)(F)F)cc(C(F)(F)F)c1 | – | 94% | 4.2 µM
24 | O=C(Nc1ccccc1C(=O)Nc1cccc(C(F)(F)F)c1)c1ccc(C(F)(F)F)cc1 | – | 93% | 5.93 µM

Row | Compound | AC50 (Relaxin receptor 1; hek293) | %max [1] | AC50 (Relaxin receptor 1; read-out: AC50)
25 | COCCOc1ccccc1C(=O)Nc1ccccc1C(=O)Nc1cccc(C(F)(F)F)c1 | – | 98% | 0.747 µM
26 | O=C(Nc1cccc(C(F)(F)F)c1)c1ccccc1Nc1cccc(C(F)(F)F)c1 | – | 93% | 4.2 µM
27 | CCOc1ccccc1S(=O)(=O)Nc1ccccc1C(=O)Nc1cccc(S(=O)(=O)C(F)(F)F)c1 | – | inactive | –
28 | CN(C)CCCOc1ccccc1C(=O)Nc1ccccc1C(=O)Nc1cccc(C(F)(F)F)c1 | – | 66% | 59.3 µM
29 | O=C(Nc1cccc(Br)c1)c1ccccc1NC(=O)C1CCCCC1 | – | 91% | 2.65 µM
30 | O=C(Nc1ccccc1C(=O)Nc1cccc(S(=O)(=O)C(F)(F)F)c1)c1ccccc1I | – | 85% | 4.2 µM
31 | O=C(NCc1ccccc1C(F)(F)F)c1ccccc1NC(=O)C1CCCCC1 | Not Active | inactive | –
32 | O=C(NCc1ccco1)c1ccccc1NC(=O)c1ccccc1NC(=O)C1CCCCC1 | – | 45% | 9.4 µM
33 | CC(=O)c1ccc(C(=O)Nc2ccccc2C(=O)Nc2cccc(C(F)(F)F)c2)cc1 | – | 71% | 5.93 µM
34 | COc1ccccc1CNc1ccccc1C(=O)Nc1cccc(C(F)(F)F)c1 | – | 57% | 59.3 µM
35 | CCOc1ccccc1-c1nc2c(C(=O)Nc3cccc(S(=O)(=O)C(F)(F)F)c3)cccc2[nH]1 | Not Active | inactive | –
36 | O=C(Nc1cccc(C(F)(F)F)c1)c1ccccc1NC(=O)C1CCCC1 | – | 88% | 2.36 µM
37 | CCOc1ccccc1C(=O)Nc1ccccc1C(=O)Nc1cccc(-c2nnn[nH]2)c1 | Not Active | inactive | –
38 | O=C(Nc1ccccc1C(=O)Nc1cccc(C(F)(F)F)c1)c1ccccc1I | – | 80% | 7.47 µM
39 | O=C(NCc1cccs1)c1ccccc1NC(=O)C1CCCCC1 | – | 40% | 118 µM
40 | O=C(Nc1cccc(C(F)(F)F)c1)c1ccccc1NC(=O)c1ccccc1OCCN1CCOCC1 | – | 98% | 4.71 µM
41 | O=C(Nc1ccccc1C(=O)Nc1cccc(C(F)(F)F)c1)c1ccc2ccccc2c1 | – | 85% | 14.9 µM
42 | O=C(Nc1cccc(C(F)(F)F)c1)c1ccccc1NC(=O)c1ccccc1OCCN1CCNCC1 | Not Active | inactive | –
43 | O=C(Nc1cccc(C(F)(F)F)c1)c1cccc(NC(=O)C2CCCCC2)c1 | Not Active | inactive | –
44 | COc1ccccc1C(=O)Nc1ccccc1C(=O)N(C)c1cccc(C(F)(F)F)c1 | – | 77% | 29.7 µM
45 | CNCCOc1ccccc1C(=O)Nc1ccccc1C(=O)Nc1cccc(C(F)(F)F)c1 | – | 92% | 3.74 µM
46 | O=C(Nc1ccccc1C(=O)Nc1cccc(C(F)(F)F)c1)c1ccco1 | – | 81% | 2.36 µM
47 | C/C=C\c1cccc(NC(=O)c2ccccc2NC(=O)c2ccccc2OCC)c1 | – | 91% | –
48 | O=C(Nc1cc(C(F)(F)F)ccc1F)c1ccccc1NC(=O)C1CCCCC1 | Not Active | inactive | –

Row | Compound | AC50 (Relaxin receptor 1; hek293) | %max [1] | AC50 (Relaxin receptor 1; read-out: AC50)
49 | COCCNc1ccccc1C(=O)Nc1cccc(C(F)(F)F)c1 | – | 63% | 59.3 µM
50 | O=C(Nc1ccc(C(F)(F)F)cc1)c1ccccc1NC(=O)C1CCCCC1 | – | 46% | 94 µM
51 | CCOc1ccccc1C(=O)Nc1ccccc1C(=O)Nc1ccccn1 | – | 74% | 29.7 µM
52 | CCOc1ccccc1C(=O)NCCC(=O)Nc1cccc(S(=O)(=O)C(F)(F)F)c1 | – | 90% | 4.71 µM
53 | O=C(Nc1cccc(F)c1)c1ccccc1NC(=O)C1CCCCC1 | – | 81% | 13.3 µM
54 | O=C(Nc1cccc(C(F)(F)F)c1)c1ccccc1NCC1CCCCC1 | – | 77% | 5.93 µM
55 | O=C(Nc1ccccc1C(=O)Nc1cccc(C(F)(F)F)c1)c1cccc(-c2ccccc2)c1 | – | 89% | 5.29 µM
56 | O=C(Nc1cccc(C(F)(F)F)c1)c1ccccc1Nc1ccccc1 | – | 84% | 4.2 µM
57 | CC(C)(C)OC(=O)N1CCN(CCOc2ccccc2C(=O)Nc2ccccc2C(=O)Nc2cccc(C(F)(F)F)c2)CC1 | – | 94% | 1.33 µM
58 | O=C(Nc1cccc(C(F)(F)F)c1)c1ccccc1NC(=O)c1ccccc1[N+](=O)[O-] | – | 30% | 188 µM
59 | O=C(Nc1ccccc1C(=O)Nc1cccc(C(F)(F)F)c1)c1cccc(C(F)(F)F)c1 | – | 95% | 2.97 µM
60 | CCOc1ccccc1C(=O)Nc1cccnc1C(=O)Nc1cccc(S(=O)(=O)C(F)(F)F)c1 | – | 73% | 4.71 µM
61 | O=C(Nc1ccccc1C(=O)Nc1cccc(C(F)(F)F)c1)c1ccccc1Cl | – | 92% | 3.74 µM
62 | C/C=C/c1cccc(NC(=O)c2ccccc2NC(=O)c2ccccc2OCC)c1 | – | 84% | 2.11 µM
63 | CCOc1ccccc1C(=O)Nc1cccc2c1C(=O)N(c1cccc(S(=O)(=O)C(F)(F)F)c1)C2 | Not Active | inactive | –
64 | O=C(Cc1ccccc1)Nc1ccccc1C(=O)Nc1cccc(C(F)(F)F)c1 | – | 86% | 8.38 µM
65 | Cc1ccc(NC(=O)c2ccccc2NC(=O)C2CCCCC2)cc1 | – | 32% | 187 µM
66 | CCOc1ccccc1-c1nc2ccccc2c2nc3ccc(C(F)(F)F)cc3n12 | – | – | 188 µM
67 | O=C(NCc1cccc(C(F)(F)F)c1)c1ccccc1NC(=O)C1CCCCC1 | – | inactive | –
68 | O=C(Nc1cccc(-c2ccccc2)c1)c1ccccc1NC(=O)C1CCCCC1 | – | inactive | –
69 | Cc1ccccc1NC(=O)c1ccccc1NC(=O)C1CCCCC1 | – | inactive | –
70 | CCOc1ccccc1C(=O)Nc1ccccc1C(=O)Nc1cncc(I)c1 | – | 72% | –
71 | COc1ccccc1C(=O)N(C)c1ccccc1C(=O)Nc1cccc(C(F)(F)F)c1 | – | inactive | –
72 | O=C(Nc1cccc(-c2cccc(C(F)(F)F)c2)c1)c1ccccc1NC(=O)C1CCCCC1 | – | inactive | –

Source: ChEMBL document CHEMBL3714716, “Modulators of the relaxin receptor 1” (2015)
